Common to all, as to test: DTP human tumour cell line panel, 48 h
Assay [1] concerns A549 NSCLC.
The test system of assay [2] is ACHN renal.
The test system of assay [3] is M14 melanoma.
Assay [4] concerns MALME-3M melanoma.
In assay [5] the test system is RXF 393 renal.
Assay [6] deals with SK-MEL-28 melanoma.
The subject of assay [7] is SNB-19 CNS.
For assay [8], the system named is U251 CNS.
Assay [9] has as its system COLO 205 colon.
For assay [10], the system named is DU-145 prostate.
Assay [11] concerns HL-60(TB) leukemia.
Assay [12] has as its system HOP-62 NSCLC.
Assay [13] has as its system HS 578T breast.
For assay [14], the system named is IGROV1 ovarian.
Assay [15] has as its system K-562 leukemia.
In assay [16] the test system is MCF7 breast.
Assay [17] has as its system NCI-H226 lung.
The test system of assay [18] is OVCAR-3 ovarian.
In assay [19] the test system is OVCAR-8 ovarian.
Assay [20] has as its system RPMI-8226 leukemia.
Assay [21] deals with SF-268 CNS.
Assay [22] relates to SF-295 CNS.
For assay [23], the system named is SK-OV-3 ovarian.
Assay [24] has as its system SW-620 colon.
For assay [25], the system named is UO-31 renal.

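Compound exposure: 48 hours, 5 concentrations, 96-well plates. Here, GI50 denotes the concentration required for 50% inhibition of growth. TGI marks complete inhibition of growth.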 Where only a bound is given, the exact number is not on record here.

As to `CC1(C)COC(c2ccc(CC(Cc3ccc(C4(C(C)(C)C)OCC(C)(C)CO4)cc3)C(=O)O)cc2)(C(C)(C)C)OC1`, the GI50 (in general, the concentration at which growth is held to half of that of the control) was 2.06 µM in assay [1]; 2.8 µM in assay [2]; greater than 100 µM in [3]; greater than 100 µM in assay [4]; 2.86 µM in [5]; greater than 100 µM in assay [6]. The GI50 in assay [7] was 4.14 µM; in assay [8] it was 3.03 µM. Moreover, the TGI in [1], in assay [2], in assay [3], in assay [4], in [5] and in assay [6] was greater than 100 µM in each case. Besides, the TGI in assay [7] and in assay [8] was greater than 100 µM in each case.

`CC(=O)O[C@H]1CC2C(C3CCC(C(C)CCC(N)=O)[C@]31C)[C@H](OC(C)=O)C[C@@H]1CC3(CC[C@]21C)OOC1(CC[C@]2(C)C4C[C@H](OC(C)=O)[C@]5(C)C(C(C)CCC(N)=O)CCC5C4[C@H](OC(C)=O)C[C@@H]2C1)OO3` (some centres undefined): the TGI – broadly, the concentration at which net growth stops – in [9] amounted to 2.84 µM; in [10], 3.49 µM; in assay [11] it was 4.19 µM; in assay [12], 3.86 µM; in assay [13], 4.55 µM; in [14], 3.28 µM. The TGI is greater than 100 µM in [15]; 4.08 µM in assay [16]; 2.79 µM in assay [17]; 2.85 µM in assay [18]; 3.66 µM in [19]; greater than 100 µM in assay [20]. Besides, the TGI in [5] was 3.34 µM; in assay [21], 3.37 µM; in assay [22] it was 3.2 µM; in assay [23], 3.95 µM; in [24] it was greater than 100 µM; in assay [25] it was 2.36 µM.

Source of the values: PubChem BioAssay (NCI).
